Laboratory results taken from ChEMBL document CHEMBL1129081, “New neplanocin analogues. 7. Synthesis and antiviral activity of 2-halo derivatives of neplanocin A” (J Med Chem, 1996).
In brackets after ≈: the same amount, converted by molar mass.

How the values were obtained:
[1] = test system: CCRF-CEM; assay: Antiviral and cytostatic effects againstTK-VZV virus expressed in CEM cells; assay type: functional, cell-based; details: Homo sapiens
[2] = test system: E6SM; assay: Antiviral and cytostatic effects againstTK-VZV virus expressed in E6SM cells; assay type: functional, cell-based; details: Homo sapiens
[3] = test system: E6SM; assay: Antiviral and cytostatic effects against CMV (Davis) virus expressed in […]; assay type: functional, cell-based; details: Homo sapiens
[4] = test system: E6SM; assay: Antiviral and cytostatic effects against Hsv-1(KOS) virus expressed in E6SM cells; assay type: functional, cell-based; details: Homo sapiens
[5] = test system: E6SM; assay: Antiviral and cytostatic effects against Hsv-2(G) virus expressed in E6SM cells; assay type: functional, cell-based; details: Homo sapiens
[6] = test system: E6SM; assay: Antiviral and cytostatic effects against VSV virus expressed in E6SM cells; assay type: functional, cell-based; details: Homo sapiens
[7] = test system: E6SM; assay: Antiviral and cytostatic effects against VV virus expressed in E6SM cells; assay type: functional, cell-based; details: Homo sapiens
[8] = test system: FM3A; assay: Antiviral and cytostatic effects againstTK-VZV virus expressed in FM3A cells; assay type: functional, cell-based; details: Mus musculus
[9] = test system: HEL; assay: Antiviral and cytostatic effects against CMV (AD-169) virus expressed in HEL cells; assay type: functional, cell-based; details: Homo sapiens
[10] = test system: HEL; assay: Antiviral and cytostatic effects against VZV(Oka,YS) virus expressed in HEL cells; assay type: functional, cell-based; details: Homo sapiens
[11] = test system: HeLa; assay: Antiviral and cytostatic effects against Polio-1 virus expressed in Hela cells; assay type: functional, cell-based; details: Homo sapiens
[12] = test system: HeLa; assay: Antiviral and cytostatic effects against VSV virus expressed in Hela cells; assay type: functional, cell-based; details: Homo sapiens
[13] = test system: L1210; assay: Antiviral and cytostatic effects againstTK-VZV virus expressed in L1210 cells; assay type: functional, cell-based; details: Mus musculus
[14] = test system: MOLT-4; assay: Antiviral and cytostatic effects againstTK-VZV virus expressed in MOLT-4 cells; assay type: functional, cell-based; details: Homo sapiens
[15] = test system: Measles morbillivirus; assay: Inhibitory concentration required to reduce virus Plaque formation (measles); assay type: functional, organism-based
[16] = test system: Mumps virus; assay: Inhibitory concentration required to reduce virus Plaque formation (mumps); assay type: functional, organism-based; details: Mumps orthorubulavirus
[17] = test system: Vesicular stomatitis virus; assay: Inhibitory concentration required to reduce virus -induced cytopathicity (VSV); assay type: functional, organism-based
[18] = test system: Vero; assay: Antiviral and cytostatic effects against Junin virus expressed in Vero cells; assay type: functional, cell-based; details: Chlorocebus sabaeus
[19] = test system: Vero; assay: Antiviral and cytostatic effects against Parainfluenza-3 virus expressed in Vero cells; assay type: functional, cell-based; details: Chlorocebus sabaeus
[20] = test system: Vero; assay: Antiviral and cytostatic effects against Reo-1 virus expressed in Vero cells; assay type: functional, cell-based; details: Chlorocebus sabaeus
[21] = test system: Vero; assay: Antiviral and cytostatic effects against Sindbis virus expressed in Vero cells; assay type: functional, cell-based; details: Chlorocebus sabaeus
[22] = test system: Vero; assay: Antiviral and cytostatic effects against Tacaribe virus expressed in Vero cells; assay type: functional, cell-based; details: Chlorocebus sabaeus
[23] = test system: Vero; assay: Antiviral and cytostatic effects againstTK-VZV virus expressed in Vero cells; assay type: functional, cell-based; details: Chlorocebus sabaeus
[24] = test system: Vero; assay: Cytotoxic concentration required to reduce the number of Vero cells by 50%; assay type: cell-based; details: Chlorocebus sabaeus
[25] = test system: HEL; assay: Antiviral and cytostatic effects against TK-VZV virus expressed in HEL cells; assay type: functional, cell-based; details: Homo sapiens
[26] = test system: HEL; assay: Antiviral and cytostatic effects againstTK-VZV virus expressed in HEL cells; assay type: functional, cell-based; details: Homo sapiens
[27] = test system: HeLa; assay: Antiviral and cytostatic effects againstTK-VZV virus expressed in Hela cells; assay type: functional, cell-based; details: Homo sapiens
[28] = test system: Vero; assay: Antiviral and cytostatic effects against forest virus expressed in Vero cells; assay type: functional, cell-based; details: Chlorocebus sabaeus
[29] = test system: HeLa; assay: Antiviral and cytostatic effects against Coxsackie B4 virus expressed in HeLa cells; assay type: functional, cell-based; details: Homo sapiens
[30] = test system: E6SM; assay: Antiviral and cytostatic effects against TK HSV-1( B2006) virus expressed in E6SM cells; assay type: functional, cell-based; details: Homo sapiens

Nc1nc(F)nc2c1ncn2[C@@H]1C=C(CO)[C@@H](O)[C@H]1O
IC50 [1]: 1.75 µg/mL (≈ 6.22 µM) | IC50 [2]: 40 µg/mL (≈ 142 µM) | IC50 [3]: > 5 µg/mL | IC50 [4]: > 40 µg/mL | IC50 [5]: > 40 µg/mL | IC50 [6]: 1 µg/mL (≈ 3.56 µM) | IC50 [7]: 0.1 µg/mL (≈ 0.356 µM) | IC50 [8]: 0.19 µg/mL (≈ 0.676 µM) | IC50 [9]: 1.5 µg/mL (≈ 5.33 µM) | IC50 [10]: 10 µg/mL (≈ 35.6 µM) | IC50 [11]: > 40 µg/mL | IC50 [12]: 0.4 µg/mL (≈ 1.42 µM) | IC50 [13]: 0.25 µg/mL (≈ 0.889 µM) | IC50 [14]: 0.5 µg/mL (≈ 1.78 µM) | IC50 [15]: 0.03 µg/mL (≈ 0.107 µM) | IC50 [16]: 1.2 µg/mL (≈ 4.27 µM) | IC50 [17]: 0.25 µg/mL (≈ 0.889 µM) | IC50 [18]: 0.6 µg/mL (≈ 2.13 µM) | IC50 [19]: 2 µg/mL (≈ 7.11 µM) | IC50 [20]: 0.7 µg/mL (≈ 2.49 µM) | IC50 [21]: 1 µg/mL (≈ 3.56 µM) | IC50 [22]: 0.7 µg/mL (≈ 2.49 µM) | IC50 [23]: 100 µg/mL (≈ 356 µM) | IC50 [24]: > 200 µg/mL | IC50 [25]: 7 µg/mL (≈ 24.9 µM) | IC50 [26]: 2 µg/mL (≈ 7.11 µM) | IC50 [27]: 100 µg/mL (≈ 356 µM) | IC50 [28]: > 100 µg/mL | IC50 [29]: > 100 µg/mL | IC50 [30]: > 40 µg/mL

C[C@H](O)C1=C[C@@H](n2cnc3c(N)ncnc32)[C@H](O)[C@@H]1O
IC50 [15]: 0.09 µg/mL (≈ 0.325 µM) | IC50 [16]: 0.19 µg/mL (≈ 0.685 µM) | IC50 [17]: 0.25 µg/mL (≈ 0.902 µM) | IC50 [24]: > 200 µg/mL

Nc1ncnc2c1ncn2[C@@H]1C=C[C@@H](O)[C@H]1O
IC50 [15]: 0.47 µg/mL (≈ 2.02 µM) | IC50 [16]: 1.1 µg/mL (≈ 4.72 µM) | IC50 [17]: 1 µg/mL (≈ 4.29 µM) | IC50 [24]: > 200 µg/mL

Nc1nc(Cl)nc2c1ncn2[C@@H]1C=C(CO)[C@@H](O)[C@H]1O
IC50 [15]: 29 µg/mL (≈ 97.4 µM) | IC50 [16]: > 25 µg/mL | IC50 [17]: 63 µg/mL (≈ 212 µM) | IC50 [24]: > 200 µg/mL

Nc1ncnc2c1ncn2[C@@H]1C=C(CO)[C@@H](O)[C@H]1O [NEOPLANOCIN A]
IC50 [1]: 1.12 µg/mL (≈ 4.25 µM) | IC50 [2]: 70 µg/mL (≈ 266 µM) | IC50 [3]: 0.4 µg/mL (≈ 1.52 µM) | IC50 [4]: 70 µg/mL (≈ 266 µM) | IC50 [5]: > 40 µg/mL | IC50 [6]: 7 µg/mL (≈ 26.6 µM) | IC50 [7]: 0.7 µg/mL (≈ 2.66 µM) | IC50 [8]: 0.022 µg/mL (≈ 0.0836 µM) | IC50 [10]: 10 µg/mL (≈ 38 µM) | IC50 [11]: > 40 µg/mL | IC50 [12]: 2 µg/mL (≈ 7.6 µM) | IC50 [13]: 0.027 µg/mL (≈ 0.103 µM) | IC50 [14]: 2.34 µg/mL (≈ 8.89 µM) | IC50 [15]: 0.1 µg/mL (≈ 0.38 µM) | IC50 [16]: 0.11 µg/mL (≈ 0.418 µM) | IC50 [17]: 0.25 µg/mL (≈ 0.95 µM) | IC50 [18]: 0.5 µg/mL (≈ 1.9 µM) | IC50 [19]: 2 µg/mL (≈ 7.6 µM) | IC50 [20]: 0.7 µg/mL (≈ 2.66 µM) | IC50 [21]: 7 µg/mL (≈ 26.6 µM) | IC50 [22]: 1.5 µg/mL (≈ 5.7 µM) | IC50 [23]: 40 µg/mL (≈ 152 µM) | IC50 [24]: 155 µg/mL (≈ 589 µM) | IC50 [25]: 9 µg/mL (≈ 34.2 µM) | IC50 [26]: > 20 µg/mL | IC50 [27]: 40 µg/mL (≈ 152 µM) | IC50 [28]: > 40 µg/mL | IC50 [29]: > 40 µg/mL | IC50 [30]: 20 µg/mL (≈ 76 µM)

Nc1nc(Cl)nc2c1ncn2[C@@H]1C=C[C@@H](O)[C@H]1O
IC50 [15]: > 25 µg/mL | IC50 [16]: > 25 µg/mL | IC50 [24]: > 200 µg/mL

C[C@H](O)C1=C[C@@H](n2cnc3c(N)nc(F)nc32)[C@H](O)[C@@H]1O
IC50 [15]: > 25 µg/mL | IC50 [16]: 7 µg/mL (≈ 23.7 µM) | IC50 [17]: 16 µg/mL (≈ 54.2 µM) | IC50 [24]: > 200 µg/mL

Nc1nc(F)nc2c1ncn2[C@@H]1C=C[C@@H](O)[C@H]1O
IC50 [15]: > 25 µg/mL | IC50 [16]: 21 µg/mL (≈ 83.6 µM) | IC50 [24]: > 200 µg/mL
